Measurements: patent US7897567B2, “Methods of protecting against radiation damage using alpha thymosin” (SciClone Pharmaceuticals, Inc., priority 2002, dated 2011)
Ends that are not written are not given here.

Experiments:
[1] = test system: clonogenic cells of the small intestine (crypts); assay: Small intestine crypt survival after 13Gy X-irradiation in BDF1 mice; type: in vivo
Excerpt: Radiation exposure may damage or kill cells. Therefore, stem and clonogenic cells of the small intestine were exposed to radiation, treated and monitored to observe the effectiveness of the treatment. There are thought to be between four and sixteen actual stem cells in each crypt of the small intestine. There are also a further reserve of clonogneic cells which are capable of regenerating the crypt when all the actual stem cells have been killed. The survival of these clonogenic cells is therefore key to the survival of the crypt and the restoration of an intact epithelial lining following cytotoxic injury (only one clonogenic cell need survive to ensure the survival of the crypt, and therefore maintenance of an intact epithelium). Growth factors and related molecules can be used to manipulate the sensitivity of these cells to cytotoxic agents, and thereby reduce the severity of gastrointestinal and oral mucositis. Factors given prior to a cytotoxic insult may increase clonogenic cell number (thereby increasing the probability of clonogen survival) or act to arrest the cell cycle in such cells (thereby making them more resistant to damage or death). […] A combination of both protocols could give maximum protection to the epithelium.
36 adult male BDF1 mice (aged 10-12 weeks) were used. The animals were divided into 6 groups and were treated as follows: (1) Control mice, (2) Irradiated, untreated mice, (3) Mice receiving 3 mg/kg thymosin ip 3 hrs prior to irradiation, (4) Mice receiving vehicle ip 3 hrs prior to irradiation, (5) Mice receiving 3 mg/kg thymosin ip 3 times daily for 3 days prior to irradiation, (6) Mice receiving vehicle ip 3 times daily for 3 days prior to irradiation.
The injections were given at 9:00 (3 times treatment) or 12:00 (1 time treatment). At 3:00 on day 3, intestinal damage was induced using a single dose of 13Gy (Gray) X-irradiation.
4 days after irradiation the animals were culled. The small intestine was removed and fixed in Carnoy's fixative prior to processing for histological analysis. 3 um sections were cut and stained with haematoxylin and eosin. Surviving crypts with one or more clonogenic cells are clearly visible in the irradiated sections. […]
For each animal ten intestinal circumferences were analyzed (60 per group). […] The number of surviving crypts per circumference were scored and the average per group determined. Only crypts containing 10 or more strongly H&E stained cells (excluding Paneth cells) and only intact circumference not containing Peyers patches were scored (Peyers patches influence both the number of crypts in a normal circumference and the ability of a crypt to survive insult).
The average crypt width (measured at its widest point) was also measured in order to correct for scoring errors due to crypt size difference. […]

[2] = subcutaneously injected; cited from earlier work

Substance: Thymosin alpha 1 (SDAAVDTSSEITTKDLKEKKEVVEEAEN; not fully specified (N-terminus); UniProt P06454 2-29, looked up) [28-amino acid thymic peptide with immunomodulatory properties, homologous to a natural product isolated from thymosin fraction 5 of calf thymus]
- survival of treatment and adverse effects ([1]; 3 mg/kg ip, single or triple dose, BDF1 mice, 13Gy X-irradiation): no obvious adverse effects
- increase in surviving crypts ([1]; triple dose thymosin vs triple dose vehicle control): 77%
- protection factor ([1]; triple dose thymosin vs triple dose vehicle control (5.3 vs 3)): 1.77
- corrected crypt survival (corrected number of crypts/circumference) ([1]; triple dose: 3 mg/kg ip 3 times daily for 3 days prior to 13Gy X-irradiation, BDF1 mice, 4 days after irradiation): 5.3 crypts/circumference
- plasma half-life [2]: about two
